Holding throughout (type): cell-based
Assay [1] deals with HIV-1NL4-3 Wild Type. Nature of the assay: Luminescence reduction assay, MT4 cells infected with HIV-1NL4-3 luciferase reporter virus, wild type. To be noted: 2% FCS. The source says: (§1) For this assay, HIV-1NL4-3 reporter viruses are used, which carry the luciferase164 gene (lu164) instead of the nef gene. The viruses are generated by transfection of 293T cells with the corresponding proviral pNL4-3 plasmid (Lipofectamine Reagent, Invitrogen, Karlsruhe, Germany). Starting from the proviral plasmid-DNA, viruses with defined resistance mutations in the reverse transcriptase gene are produced with the “QuikChange II XL Site-Directed Mutagenesis Kit” (Stratagene, Cedar Creek, Tex., USA). Among other things, the following mutations are generated: A98G, A98G-K103N-V108I, A98S, F227C, F227L, G190A, G190S, K101E, K101Q-K103N, K103N, K103N-F227L, K103N-G190A, K103N-G190S, K103N-M230L, K103N-N348I, K103N-P225H, K103N-V108I, K103N-V108I-P225H, K103N-V179F-Y181C, K103N-Y181C, K103N-Y181C-G190A, L100I, L100I-K103N, L100I-K103N-V179I-Y181C, L100I-K103N-Y181C, L234I, N348I, P225H, P236L, V106A, V106A-E138K, V106A-F227C, V106A-F227L, V106I, V106I-Y188L, V106M, V108I, V179F-Y181C, V179I, V179I-Y181C, Y181C, Y181C-G190A, Y181C-M230L, Y181I, Y188L. MT4 cells infected with these reporter viruses (NIH AIDS Research and Reference Reagent Program) secrete luciferase into the medium, which makes possible the luminometric quantification of the virus replication.
(§2) For the batch of a 96-well MTP, 3 million MT4 cells are pelletized, suspended in 1 ml of RPMI 1640 medium without phenol red (Invitrogen, Karlsruhe, Germany)/10% FCS/2 mmol of L-glutamine/1% Pen/Strep (Invitrogen, Karlsruhe, Germany), and incubated together with a suitable amount of the corresponding HIV-1NL4-3 reporter virus for 2 hours at 37° C. (pellet infection). Non-adsorbed viruses are then washed out with PBS, the infected cells are pelletized again, and suspended in 8 ml of RPM 11640 medium without phenol red/2% or 10% FCS/2 mmol of L-glutamine/1% Pen/Strep. Therefrom, 80 μl per well is pipetted into a white 96-well MTP in 20 μl of test substance in a suitable dilution. In order to avoid boundary effects, the edge wells of the MTP are not used for substance dilutions. The second vertical row of the MTP contains only infected cells (virus control), and the eleventh vertical row contains only non-infected cells (cell control) in each case in RPMI 1640 medium without phenol red/2% or 10% FCS/2 mmol of L-glutamine/1% Pen/Strep. The other wells of the MTP contain the compounds according to the invention in different concentrations starting from the third vertical row, from which dilution of the test substances is carried out 3^7 times in three steps up to the tenth vertical row. The test substances are dissolved in DMSO, whereby the DMSO final concentration in the test batch is ultimately 1%. The test batches are incubated for 5 days at 37° C./5% CO2, and are luminometrically evaluated after the addition of 15 μl of Lu164-buffer (65 mmol of NaCl, 300 mmol of MES, pH 5.8, 5 mmol of glutathione and 1:200 coelenterazine (5 mg/ml in 30 μM of glutathione/DMSO) (P.J.K. GmbH, Kleinblittersdorf, Germany)). In the virus control, the resulting values are in the range of 1 million RLUs (relative light units), and in the cell control, the resulting values are 300 to 400 RLUs. The EC50 values of the test substances are determined as the concentration of the treated infected cells, in which the virus replication measured in RLUs is 50% of the untreated infected cells.

Assay [2] deals with HIV-1LAI Wild Type. Nature of the assay: AlamarBlue viability assay, HIV-1LAI-infected MT4 cells. To be noted: 10% FCS. The method, then: For the batch of a 96-well MTP, 3 million PBLs are pelletized, suspended in 1 ml of RPMI 1640 medium/10% FCS/2 mmol of L-glutamine/1% Pen/Strep, and incubated together with a suitable amount of HIV-1LA1 (NIH AIDS Research & Reference Reagent Program, Germantown, USA) for 2 hours at 37° C. (pellet infection). Non-adsorbed viruses are then washed out with PBS, the infected cells are pelletized again, and suspended in 18 ml of RPMI 1640 medium/10% FCS/2 mmol of L-glutamine/1% Pen/Strep/interleukin-2 (40 U/ml). Therefrom, 180 μl per well is pipetted into a white 96-well MTP in 20 μl of test substance in a suitable dilution. As an alternative, after preparation of the substance dilutions, the HIV is added by pipetting in the MTP together with the cells and is no longer washed out (supernatant infection). In order to avoid boundary effects, the edge wells of the MTP are not used for substance dilutions. The second vertical row of the MTP contains only infected cells (virus control), and the eleventh vertical row contains only non-infected cells (cell control) in each case in RPMI 1640 medium/10% FCS/2 mmol of L-glutamine/1% Pen/Strep/interleukin-2 (40 U/ml). The other wells of the MTP contain the compounds according to the invention in different concentrations starting from the third vertical row, from which dilution of the test substances is carried out 3^7 times in three steps up to the tenth vertical row. The test substances are dissolved in DMSO, whereby the DMSO final concentration in the test batch is ultimately 1%. The test batches are incubated at 37° C./5% CO2. After 5 and 7 days, in each case 50 μl of cell-free supernatant is drawn off from each well in order to determine the amount of p24 contained by means of p24 ELISA (HIV-1 p24^CA Antigen Capture Assay Kit, NCI-Frederick Cancer Research and Development Center, Frederick, USA). From the resulting values of the photometric analysis (450/620 nm), the EC50 values of the test substances are determined as the concentration of the treated infected cells, in which the amount of p24 is 50% of the untreated infected cells.
As an alternative, MT4 cells are used for testing test substances instead of PBLs. HIV-1LA1-infected MT4 cells (MOI 0.01, supernatant infection) are incubated according to the above-described pattern in RPMI 1640 medium with 2% or 10% FCS/2 mmol of L-glutamine/1% Pen/Strep in the presence of test substances for 5 days at 37° C./5% CO2 (20 μl of substance dilution and 80 μl of cells/virus per well). Then, 10 μl of AlamarBlue (Invitrogen, Karlsruhe, Germany) is added to each well, and MTPs are incubated for 3 hours at 37° C., before the fluorimetric analysis is done (544/590 nm). The resulting values are approximately 30,000 in the case of untreated, non-infected cells, and approximately 6,000 in the case of untreated infected cells. In the low concentration range, the EC50 values of the test substances are determined as the concentration of the treated infected cells, in which the fluorescence is 50% of the untreated non-infected cells (in each case relative to the values of the untreated infected cells). In addition, in the high concentration range, the CC50 values of the test substances are determined as the concentration of the treated infected cells, in which the fluorescence is 50% of the untreated, non-infected cells (in each case relative to the values of the untreated infected cells).

In assay [3] the test system is HIV-1NL4-3 K103N-Y181C. The experiment in a line: Luminescence reduction assay, MT4 cells infected with HIV-1NL4-3 luciferase reporter virus, RT mutant K103N-Y181C.
Source text: as §1, §2

[4] abbreviates: read-out: EC50 (μM) MT4 Cells HIV-1NL4-3 K103N-Y181C 2% FCS, MT4 cells, HIV-1NL4-3 K103N-Y181C, 2% FCS.
[5] abbreviates: Human immunodeficiency virus 1, MT4, MT4 cells.
[6] abbreviates: Human immunodeficiency virus 1, MT4, read-out: EC50 (μM) MT4 Cells HIV-1NL4-3 K103N-Y181C 2% FCS, MT4 cells, HIV-1NL4-3 K103N-Y181C, 2% FCS.

The structures appear in SMILES notation. Like-named read-outs stand apart in the source and are kept apart here. Bounds are passed on as bounds.

Consider `O=C(c1cc(-c2cc(F)cc(Cl)c2)n(-c2cccnc2)n1)N1CC[S+]([O-])C1` (racemic) [Example 6, [5-(3-Chloro-5-fluorophenyl)-1-(pyridin-3-yl)-1H-pyrazol-3-yl](1-oxido-1,3-thiazolidin-3-yl)methanone], for which the EC50 in assay [1] (MT4 cells) turned out to be 0.054 µM; in assay [2] (MT4 cells), 0.201 µM; in assay [3] (setting [4]), 1.36 µM.

Turning to `O=C(c1cc(-c2cc(F)cc(Cl)c2)n(-c2cccnc2)n1)N1CC[S+]([O-])C1` (racemic) [Example 6-1, [5-(3-Chloro-5-fluorophenyl)-1-(pyridin-3-yl)-1H-pyrazol-3-yl](1-oxido-1,3-thiazolidin-3-yl)methanone], the EC50 was 0.255 µM in assay [1] (MT4 cells), 1.49 µM in assay [2] (MT4 cells) and above 3.3 µM in assay [3] (setting [4]).

In the case of `O=C(c1cc(-c2cc(F)cc(Cl)c2)n(-c2cccnc2)n1)N1CC[S+]([O-])C1` (racemic) [Example 6-2, [5-(3-Chloro-5-fluorophenyl)-1-(pyridin-3-yl)-1H-pyrazol-3-yl](1-oxido-1,3-thiazolidin-3-yl)methanone], the results for the EC50 in assay [1] (MT4 cells), in assay [2] (MT4 cells) and in assay [3] (setting [4]) were 0.007 µM, 0.112 µM and 0.986 µM, respectively.

On to `O=C(c1cc(-c2cc(Br)cc(OC(F)(F)F)c2)n(-c2cccnc2)n1)N1CC[S+]([O-])C1` (racemic) [Example 31, {5-[3-Bromo-5-(trifluoromethoxy)phenyl]-1-(pyridin-3-yl)-1H-pyrazol-3-yl}(1-oxido-1,3-thiazolidin-3-yl)methanone], for which the EC50 is 0.017 µM in assay [1] (MT4 cells), 0.18 µM in assay [2] (MT4 cells) and 0.045 µM in assay [3] (setting [4]).

As to `O=C(c1cc(-c2cc(Br)cc(OC(F)(F)F)c2)n(-c2cccnc2)n1)N1CC[S+]([O-])C1` (racemic) [Example 31-1, {5-[3-Bromo-5-(trifluoromethoxy)phenyl]-1-(pyridin-3-yl)-1H-pyrazol-3-yl}(1-oxido-1,3-thiazolidin-3-yl)methanone], the EC50 in assay [1] (MT4 cells) is 0.084 µM; in assay [2] (MT4 cells), 0.82 µM; in assay [3] (setting [4]), 0.981 µM.

Consider `O=C(c1cc(-c2cc(Br)cc(OC(F)(F)F)c2)n(-c2cccnc2)n1)N1CC[S+]([O-])C1` (racemic) [Example 31-2, {5-[3-Bromo-5-(trifluoromethoxy)phenyl]-1-(pyridin-3-yl)-1H-pyrazol-3-yl}(1-oxido-1,3-thiazolidin-3-yl)methanone], for which the EC50 in assay [1] (MT4 cells) was found to be 0.01 µM; in assay [2] (MT4 cells), 0.336 µM; in assay [3] (setting [4]), 0.041 µM.

As for `O=C(c1cc(-c2cc(Br)cc(OC(F)(F)F)c2)n(-c2ccc(Cl)nc2)n1)N1CC[S+]([O-])C1` (racemic) [Example 37, {5-[3-Bromo-5-(trifluoromethoxy)phenyl]-1-(6-chloropyridin-3-yl)-1H-pyrazol-3-yl}(1-oxido-1,3-thiazolidin-3-yl)methanone], the figures for the EC50 in assay [1] (setting [5]), in assay [2] (setting [5]) and in assay [3] (setting [6]) were 0.004 µM, 2.32 µM and 0.005 µM, respectively.

Take `O=C(c1cc(-c2cc(F)cc(OC(F)(F)F)c2)n(-c2cccnc2)n1)N1CC[S+]([O-])C1` (racemic) [Example 60, {5-[3-Fluoro-5-(trifluoromethoxy)phenyl]-1-(pyridin-3-yl)-1H-pyrazol-3-yl}(1-oxido-1,3-thiazolidin-3-yl)methanone]: the EC50 turned out to be 0.077 µM in assay [1] (MT4 cells), 0.997 µM in assay [2] (MT4 cells) and 0.621 µM in assay [3] (setting [4]).

Turning to `O=C(c1cc(-c2cc(F)cc(OC(F)(F)F)c2)n(-c2cccnc2)n1)N1CC[S+]([O-])C1` (racemic) [Example 60-1, {5-[3-Fluoro-5-(trifluoromethoxy)phenyl]-1-(pyridin-3-yl)-1H-pyrazol-3-yl}(1-oxido-1,3-thiazolidin-3-yl)methanone], the EC50 in assay [1] (MT4 cells) was 0.431 µM; in assay [2] (MT4 cells), above 3.3 µM; in assay [3] (setting [4]), above 3.3 µM.

For the compound `O=C(c1cc(-c2cc(F)cc(OC(F)(F)F)c2)n(-c2cccnc2)n1)N1CC[S+]([O-])C1` (racemic) [Example 60-2, {5-[3-Fluoro-5-(trifluoromethoxy)phenyl]-1-(pyridin-3-yl)-1H-pyrazol-3-yl}(1-oxido-1,3-thiazolidin-3-yl)methanone], the EC50 in assay [1] (MT4 cells) was found to be 0.084 µM; in assay [2] (MT4 cells), 0.797 µM; in assay [3] (setting [4]) it was 0.446 µM.

Turning to `O=C(c1cc(-c2cc(F)cc(OCC(F)(F)F)c2)n(-c2cccnc2)n1)N1CC[S+]([O-])C1` (racemic) [Example 73, {5-[3-Fluoro-5-(2,2,2-trifluoroethoxy)phenyl]-1-(pyridin-3-yl)-1H-pyrazol-3-yl}(1-oxido-1,3-thiazolidin-3-yl)methanone], the EC50 in assay [1] (setting [5]) was 0.018 µM; in assay [2] (setting [5]), 0.243 µM; in assay [3] (setting [6]) it was 0.951 µM.

The values above are taken from patent publication US9296720B2, “Carboxamide-substituted heteroaryl-pyrazoles and the use thereof” (AiCuris GmbH & Co. KG, priority 2011, dated 2016).
